Values after ≈ are worked out from the molar mass of the structure shown.
Legend:
[1] = tested on: Enteroc. faecalis NCTC 13 379; conditions: Enteroc. faecalis NCTC 13 379; CAMHB, 37°C, 16–20 h
Description: (§1) Briefly, bacteria were suspended in cation-adjusted Mueller–Hinton broth (CAMHB; Oxoid, UK) for antibiotics, or MHB (Oxoid, UK) for peptidomimetics to obtain 5 × 10^5 colony forming unit (CFU) ml^−1. […] Positive controls contained only microbes, and blanks contained only media. Microbial suspensions (100 µl) were added to wells, plates wrapped, and incubated at 37°C, 120 rpm for 16–20 h. After incubation, suspensions were removed, log10 diluted, and plated on Trypticase Soya Agar with phosphatidylcholine and Tween 80 to determine minimum bactericidal or fungicidal concentration (MBC or MFC). […] Geometric mean MIC of the peptoids were calculated to evaluate the broad overview of antimicrobial activity across the pathogens.

[2] = tested on: S. aureus 04; conditions: S. aureus 04; CAMHB, 37°C, 16–20 h
Description: as §1

[3] = tested on: S. aureus 38; conditions: S. aureus 38; CAMHB, 37°C, 16–20 h
Description: as §1

[4] = tested on: S. aureus 117; conditions: S. aureus 117; CAMHB, 37°C, 16–20 h
Description: as §1

[5] = tested on: S. aureus 105; conditions: S. aureus 105; CAMHB, 37°C, 16–20 h
Description: as §1

[6] = tested on: C. auris CBS 10913; test: microbe, parasite or virus in culture; assay type: cell-based, Candida auris; conditions: C. auris CBS 10913
Description: Amphotericin B was tested in parallel as a positive control (Ramesh et al. [2023]).

[7] = tested on: C. auris CBS12373; test: Broth microdilution MIC; assay type: cell-based, Candida auris; conditions: CBS 12 373; for MIC against C. auris: RPMI 1640 with MOPS, 5 × 10^3 CFU ml^−1, ≥90% reduction (≥50% for fluconazole)
[8] = tested on: C. auris CBS10913; conditions: CBS 10 913; RPMI 1640 with MOPS, 5 × 10^3 CFU ml^−1; ≥90% reduction (≥50% for fluconazole)
[9] = tested on: C. auris CBS10913; test: microbe, parasite or virus in culture; conditions: Candidozyma auris, read-out: MIC against C. auris
[10] = tested on: K. pneumoniae JIE2713; conditions: K. pneumoniae JIE2713; CAMHB, 37°C, 16–20 h
Description: as §1

[11] = tested on: E. coli 0011; conditions: E. coli 0011; CAMHB, 37°C, 16–20 h
Description: as §1

[12] = tested on: E. coli 005; conditions: E. coli 005; CAMHB, 37°C, 16–20 h
Description: as §1

[13] = tested on: En. cloacae 005; conditions: En. cloacae 005; CAMHB, 37°C, 16–20 h
Description: as §1

[14] = tested on: K. pneumoniae JIE4212; conditions: K. pneumoniae JIE4212; CAMHB, 37°C, 16–20 h
Description: as §1

[15] = tested on: E. coli 0010; conditions: E. coli 0010; CAMHB, 37°C, 16–20 h
Description: as §1

[16] = tested on: K. pneumoniae JIE2709; conditions: K. pneumoniae JIE2709; CAMHB, 37°C, 16–20 h
Description: as §1

[17] = tested on: E. coli 0015; conditions: E. coli 0015; CAMHB, 37°C, 16–20 h
Description: as §1

[18] = tested on: En. cloacae 003; conditions: En. cloacae 003; CAMHB, 37°C, 16–20 h
Description: as §1

[19] = tested on: En. cloacae 001; conditions: En. cloacae 001; CAMHB, 37°C, 16–20 h
Description: as §1

[20] = tested on: C. auris CBS 10913; test: Sorbitol protection assay; assay type: cell-based, Candida auris; conditions: C. auris CBS 10913; sorbitol 0.8 mol l^−1 in RPMI, till 7 days
Description: Caspofungin served as a positive control for the assay (Leite et al. [2014]).

[21] = tested on: C. auris CBS10913; test: Membrane integrity by flow cytometry (SYTO 9 / PI); assay type: cell-based, Candida auris; conditions: TM8 at its MIC or 1% Triton X-100, 90 min; PBS control 0.2%
Description: Afterwards, the cells were stained with SYTO 9 (7.5 µmol l^−1) and PI (30 µmol l^−1) for an additional 15 min in the dark at room temperature. Following washing, samples were then analysed for membrane integrity on a BD FACSymphony^TM A3, with a minimum of 10 000 events recorded per sample.

Row | MIC of antibiotics [1] [µg/mL] | MIC of antibiotics [2] [µg/mL] | MIC of antibiotics [3] [µg/mL] | MIC of antibiotics [4] [µg/mL] | MIC of antibiotics [5] [µg/mL] | Molecule | also measured
1 | 4 | 0.5 | 1 | 1 | 32 | CC[C@H]1OC(=O)[C@H](C)[C@@H](O[C@H]2C[C@@](C)(OC)[C@@H](O)[C@H](C)O2)[C@H](C)[C@@H](O[C@@H]2O[C@H](C)C[C@H](N(C)C)[C@H]2O)[C@](C)(O)C[C@@H](C)C(=O)[C@H](C)[C@@H](O)[C@]1(C)O [Ery, erythromycin, reference compound] | 
2 | 4 | 16 | 16 | 16 | 32 | penicillin [reference compound] | 
3 |  |  |  |  |  | C[C@@H]1[C@H](O)[C@@H](C)/C=C/C=C/C=C/C=C/C=C/C=C/C=C/[C@H](O[C@@H]2O[C@H](C)[C@@H](O)[C@H](N)[C@@H]2O)C[C@@H]2O[C@](O)(C[C@@H](O)C[C@@H](O)[C@H](O)CC[C@@H](O)C[C@@H](O)CC(=O)O[C@H]1C)C[C@H](O)[C@H]2C(=O)O [Amphotericin B, reference compound] | Increase in MIC with ergosterol ([6]; ergosterol 200 µg ml^−1): five-fold; MIC ([6]; Candidozyma auris, CBS10913, RPMI, read-out: MIC in the absence of ergosterol): 0.25 µg/mL (≈ 0.271 µM); MIC against C. auris [7]: 0.25 µg/mL (≈ 0.271 µM); MIC ([7]; Candidozyma auris, value in brackets, read-out: MIC against C. auris): 0.27 µM (≈ 0.25 µg/mL); MIC against C. auris [8]: 0.25 µg/mL (≈ 0.271 µM); MIC [9]: 0.27 µM (≈ 0.25 µg/mL)
4 | 64 | 2 | 4 | 4 | 32 | O=C(N[C@H](CO)[C@H](O)c1ccc([N+](=O)[O-])cc1)C(Cl)Cl [Chl, chloramphenicol, reference compound] | MIC of antibiotics [10]: 32 µg/mL; MIC of antibiotics [11]: 1 µg/mL; MIC of antibiotics [12]: 8 µg/mL; MIC of antibiotics [13]: 32 µg/mL; MIC of antibiotics [14]: 32 µg/mL; MIC of antibiotics [15]: 8 µg/mL; MIC of antibiotics [16]: >32 µg/mL; MIC of antibiotics [17]: 2 µg/mL; MIC of antibiotics [18]: 32 µg/mL; MIC of antibiotics [19]: 32 µg/mL
5 |  |  |  |  |  | CC[C@H](C)C[C@H](C)CCCCCCCCC(=O)N[C@H]1C[C@@H](O)[C@@H](NCCN)NC(=O)[C@@H]2[C@@H](O)CCN2C(=O)[C@H]([C@H](O)CCN)NC(=O)[C@H]([C@H](O)[C@@H](O)c2ccc(O)cc2)NC(=O)[C@@H]2C[C@@H](O)CN2C(=O)[C@H]([C@@H](C)O)NC1=O [Caspofungin, reference compound] | MIC against C. auris [7]: 0.25 (228.7) µg ml^−1; MIC in the presence of sorbitol [20]: 1 µg/mL
6 |  |  |  |  |  | Triton X-100 [reference compound] | Dead cells [21]: 27.3%
7 | 0.5 | 0.25 | 0.5 | 0.5 | 16 | CN(C)c1ccc(O)c2c1C[C@H]1C[C@H]3[C@H](N(C)C)C(O)=C(C(N)=O)C(=O)[C@@]3(O)C(O)=C1C2=O [Min, minocycline, reference compound] | 
8 |  | 0.5 | 0.5 | 0.5 | 16 | CO/N=C(\C(=O)N[C@@H]1C(=O)N2C(C(=O)O)=C(COC(C)=O)CS[C@H]12)c1csc(N)n1 [Cefox, cefotaxime, reference compound] | 

Row | Molecule | MIC of antibiotics [1] [µg/mL] | MIC of antibiotics [2] [µg/mL] | MIC of antibiotics [3] [µg/mL] | MIC of antibiotics [4] [µg/mL] | MIC of antibiotics [5] [µg/mL] | also measured
9 | CN[C@H](CC(C)C)C(=O)N[C@H]1C(=O)N[C@@H](CC(N)=O)C(=O)N[C@H]2C(=O)N[C@H]3C(=O)N[C@H](C(=O)N[C@H](C(=O)O)c4cc(O)cc(O)c4-c4cc3ccc4O)[C@H](O)c3ccc(c(Cl)c3)Oc3cc2cc(c3O[C@@H]2O[C@H](CO)[C@@H](O)[C@H](O)[C@H]2O[C@H]2C[C@](C)(N)[C@H](O)[C@H](C)O2)Oc2ccc(cc2Cl)[C@H]1O [Van, vancomycin, reference compound] | 32 | 1 | 1 | 4 | 1 | 

Source: publication PMC11879280, “Antimicrobial activity of peptoids against Metallo-β-lactamase-producing Klebsiella pneumoniae, Acinetobacter baumannii, Pseudomonas aeruginosa, and other WHO priority pathogens, including Candida auris” (Journal of Applied Microbiology, 2025)
